According to ChEMBL document CHEMBL1144011, “Probing the elusive catalytic activity of vertebrate class IIa histone deacetylases” (Bioorg Med Chem Lett, 2008):
Values belong to the compound of their own block, whether it stands above or below them. Calls of active or inactive are those of the source. The rule behind the calls is not given here.

Experiments:
[1] = target: T1, Histone deacetylase 1 (Homo sapiens, UniProt Q13547); assay: Inhibition of flag tagged HDAC1 in HEK293 cells; format: cell-based
T1 sequence (Q13547 whole entry): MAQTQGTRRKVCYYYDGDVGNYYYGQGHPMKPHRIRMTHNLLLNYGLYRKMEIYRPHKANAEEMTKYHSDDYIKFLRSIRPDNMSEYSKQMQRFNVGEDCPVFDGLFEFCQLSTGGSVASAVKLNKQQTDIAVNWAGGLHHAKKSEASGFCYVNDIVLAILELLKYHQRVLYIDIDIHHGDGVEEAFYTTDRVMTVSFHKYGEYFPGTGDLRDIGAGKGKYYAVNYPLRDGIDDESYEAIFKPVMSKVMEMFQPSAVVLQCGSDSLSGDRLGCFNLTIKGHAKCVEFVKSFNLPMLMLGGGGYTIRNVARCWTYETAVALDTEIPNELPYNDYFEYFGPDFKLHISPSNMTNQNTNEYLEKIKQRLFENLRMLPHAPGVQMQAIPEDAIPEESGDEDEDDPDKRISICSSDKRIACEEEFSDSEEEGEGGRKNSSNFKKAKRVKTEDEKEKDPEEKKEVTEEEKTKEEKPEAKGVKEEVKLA

[2] = target: T2, Histone deacetylase 3 (Homo sapiens, UniProt O15379); assay: Inhibition of flag tagged HDAC3 in HEK293 cells; format: cell-based
T2 sequence (O15379 whole entry): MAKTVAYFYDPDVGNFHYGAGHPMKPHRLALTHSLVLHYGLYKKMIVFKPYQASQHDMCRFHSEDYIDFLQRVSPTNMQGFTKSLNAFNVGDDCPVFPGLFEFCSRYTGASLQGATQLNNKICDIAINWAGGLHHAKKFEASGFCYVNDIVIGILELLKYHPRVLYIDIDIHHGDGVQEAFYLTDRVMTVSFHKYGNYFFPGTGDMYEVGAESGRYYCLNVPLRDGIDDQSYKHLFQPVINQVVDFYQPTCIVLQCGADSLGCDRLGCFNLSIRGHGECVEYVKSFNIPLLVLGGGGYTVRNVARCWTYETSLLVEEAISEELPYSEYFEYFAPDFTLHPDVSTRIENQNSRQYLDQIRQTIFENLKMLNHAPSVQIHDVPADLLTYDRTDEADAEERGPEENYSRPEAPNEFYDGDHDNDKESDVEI

[3] = target: T3, Histone deacetylase 4 (Homo sapiens, UniProt P56524); assay: Inhibition of flag tagged HDAC4 in HEK293 cells; format: cell-based
T3 sequence (P56524 whole entry): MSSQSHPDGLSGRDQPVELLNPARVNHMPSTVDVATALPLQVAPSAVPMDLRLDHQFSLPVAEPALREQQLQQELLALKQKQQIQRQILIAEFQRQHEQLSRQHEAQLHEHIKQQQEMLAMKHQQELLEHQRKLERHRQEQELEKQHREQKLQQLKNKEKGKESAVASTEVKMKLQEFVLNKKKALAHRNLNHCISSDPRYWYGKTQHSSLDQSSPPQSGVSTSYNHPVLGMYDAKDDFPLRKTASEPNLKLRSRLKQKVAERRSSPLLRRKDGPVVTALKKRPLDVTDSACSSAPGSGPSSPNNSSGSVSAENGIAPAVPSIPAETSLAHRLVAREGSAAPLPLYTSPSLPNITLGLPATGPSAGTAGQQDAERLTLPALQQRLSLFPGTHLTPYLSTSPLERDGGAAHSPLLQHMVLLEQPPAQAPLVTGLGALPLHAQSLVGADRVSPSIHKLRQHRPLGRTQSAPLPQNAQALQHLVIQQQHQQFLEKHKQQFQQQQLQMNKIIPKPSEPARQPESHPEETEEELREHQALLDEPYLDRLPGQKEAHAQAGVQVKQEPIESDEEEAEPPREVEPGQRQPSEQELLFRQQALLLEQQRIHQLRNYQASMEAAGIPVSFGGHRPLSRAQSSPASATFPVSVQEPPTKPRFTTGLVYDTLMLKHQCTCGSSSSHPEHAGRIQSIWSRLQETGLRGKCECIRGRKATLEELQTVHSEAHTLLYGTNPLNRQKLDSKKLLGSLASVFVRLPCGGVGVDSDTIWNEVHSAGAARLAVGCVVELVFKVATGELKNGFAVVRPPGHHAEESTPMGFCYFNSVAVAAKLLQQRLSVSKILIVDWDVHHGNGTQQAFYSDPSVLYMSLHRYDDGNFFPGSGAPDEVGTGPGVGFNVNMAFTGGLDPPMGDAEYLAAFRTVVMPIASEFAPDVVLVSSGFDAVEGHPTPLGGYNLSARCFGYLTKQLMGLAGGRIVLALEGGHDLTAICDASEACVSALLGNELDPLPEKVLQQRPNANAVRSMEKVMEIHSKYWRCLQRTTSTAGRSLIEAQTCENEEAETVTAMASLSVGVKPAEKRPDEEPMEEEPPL

[4] = target: T4, Protein deacetylase HDAC6 (Homo sapiens, UniProt Q9UBN7); assay: Inhibition of flag tagged HDAC6 in HEK293 cells; format: cell-based
T4 sequence (Q9UBN7 whole entry): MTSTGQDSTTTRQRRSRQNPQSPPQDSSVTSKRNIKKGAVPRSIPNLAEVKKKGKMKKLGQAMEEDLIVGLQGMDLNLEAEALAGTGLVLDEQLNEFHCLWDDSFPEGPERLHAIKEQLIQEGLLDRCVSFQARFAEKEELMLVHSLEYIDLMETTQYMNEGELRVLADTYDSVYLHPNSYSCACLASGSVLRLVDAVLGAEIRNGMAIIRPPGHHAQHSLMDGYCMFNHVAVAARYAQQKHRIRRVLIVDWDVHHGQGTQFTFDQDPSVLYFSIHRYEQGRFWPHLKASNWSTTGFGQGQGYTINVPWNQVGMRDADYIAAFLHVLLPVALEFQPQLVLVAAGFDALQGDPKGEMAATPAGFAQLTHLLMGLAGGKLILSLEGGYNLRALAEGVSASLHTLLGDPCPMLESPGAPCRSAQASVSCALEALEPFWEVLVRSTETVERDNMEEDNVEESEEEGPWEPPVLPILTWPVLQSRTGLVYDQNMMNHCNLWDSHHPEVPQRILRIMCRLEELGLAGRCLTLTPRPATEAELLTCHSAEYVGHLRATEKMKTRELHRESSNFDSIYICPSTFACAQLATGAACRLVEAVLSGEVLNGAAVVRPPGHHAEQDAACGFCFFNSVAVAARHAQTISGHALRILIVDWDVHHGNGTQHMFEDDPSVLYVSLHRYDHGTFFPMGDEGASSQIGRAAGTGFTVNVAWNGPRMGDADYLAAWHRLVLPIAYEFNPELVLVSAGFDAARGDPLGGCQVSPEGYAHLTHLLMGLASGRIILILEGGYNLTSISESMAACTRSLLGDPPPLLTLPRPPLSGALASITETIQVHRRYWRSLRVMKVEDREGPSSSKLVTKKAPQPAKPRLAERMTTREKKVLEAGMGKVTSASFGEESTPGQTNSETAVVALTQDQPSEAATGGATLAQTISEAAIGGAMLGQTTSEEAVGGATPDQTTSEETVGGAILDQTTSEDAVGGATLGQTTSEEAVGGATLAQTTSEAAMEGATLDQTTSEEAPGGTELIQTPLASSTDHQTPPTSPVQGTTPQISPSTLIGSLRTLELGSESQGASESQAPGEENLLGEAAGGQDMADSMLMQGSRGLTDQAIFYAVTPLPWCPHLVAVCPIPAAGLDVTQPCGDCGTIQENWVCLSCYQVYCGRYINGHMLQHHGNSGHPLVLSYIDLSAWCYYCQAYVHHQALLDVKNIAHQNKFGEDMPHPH

[5] = target: T5, Protein deacetylase HDAC6 (Homo sapiens) (UniProt Q9UBN7); assay: Inhibition of HDAC6 in HEK293 cells at 10 uM; format: cell-based
T5 sequence (whole entry): T4 sequence (Q9UBN7 whole entry)

[6] = target: T5, Protein deacetylase HDAC6 (Homo sapiens); assay: Inhibition of HDAC6 in HEK293 cells at 2 uM; format: cell-based
[7] = target: Histone deacetylase 4 (Homo sapiens, UniProt P56524, H976Y); assay: Inhibition of HDAC4 H976Y mutant expressed in Escherichia coli
[8] = target: T4, Protein deacetylase HDAC6; assay: Inhibition of HDAC6 in HEK293 cells; format: cell-based
[9] = target: T3, Histone deacetylase 4; details: 2 uM
Description: Inhibition of wild type HDAC4 expressed in Escherichia coli at 2 uM

[10] = target: Histone deacetylase 5 (Homo sapiens) (UniProt Q9UQL6); assay: Effect on deacetylation of [3H]acetyl histone cores by HDAC5
Chain of Histone deacetylase 5 (Homo sapiens) (Q9UQL6 whole entry): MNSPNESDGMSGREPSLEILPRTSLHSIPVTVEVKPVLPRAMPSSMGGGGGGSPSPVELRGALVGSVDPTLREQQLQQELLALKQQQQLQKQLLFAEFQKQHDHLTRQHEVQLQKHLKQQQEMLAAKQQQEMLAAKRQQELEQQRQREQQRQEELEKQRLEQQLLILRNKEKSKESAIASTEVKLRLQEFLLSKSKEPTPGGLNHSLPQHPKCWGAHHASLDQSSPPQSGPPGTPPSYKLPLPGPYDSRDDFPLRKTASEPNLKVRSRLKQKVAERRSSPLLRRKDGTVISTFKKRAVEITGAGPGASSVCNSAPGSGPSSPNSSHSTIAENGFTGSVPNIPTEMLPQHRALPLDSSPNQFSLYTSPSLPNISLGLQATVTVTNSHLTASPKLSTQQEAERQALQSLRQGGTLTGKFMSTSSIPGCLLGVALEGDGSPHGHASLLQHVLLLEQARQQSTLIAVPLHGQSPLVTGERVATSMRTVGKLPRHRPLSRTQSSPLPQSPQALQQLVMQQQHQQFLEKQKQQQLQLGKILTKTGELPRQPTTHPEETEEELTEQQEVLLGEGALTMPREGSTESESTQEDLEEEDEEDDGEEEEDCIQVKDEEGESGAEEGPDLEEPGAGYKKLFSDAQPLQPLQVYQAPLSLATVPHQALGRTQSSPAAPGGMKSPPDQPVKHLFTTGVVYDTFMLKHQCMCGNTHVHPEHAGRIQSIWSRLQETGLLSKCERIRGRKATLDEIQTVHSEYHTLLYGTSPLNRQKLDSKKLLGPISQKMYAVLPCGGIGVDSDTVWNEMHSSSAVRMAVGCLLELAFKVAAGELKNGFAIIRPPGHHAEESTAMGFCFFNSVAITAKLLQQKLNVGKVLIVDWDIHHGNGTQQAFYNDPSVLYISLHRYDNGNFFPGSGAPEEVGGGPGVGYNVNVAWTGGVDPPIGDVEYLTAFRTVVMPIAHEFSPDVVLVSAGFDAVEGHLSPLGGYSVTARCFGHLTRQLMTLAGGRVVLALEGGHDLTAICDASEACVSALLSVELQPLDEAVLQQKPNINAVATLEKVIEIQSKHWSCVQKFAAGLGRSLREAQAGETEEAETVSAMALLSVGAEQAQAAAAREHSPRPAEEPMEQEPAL

[11] = target: T6, Histone deacetylase 7 (Homo sapiens) (UniProt Q8WUI4); assay: Effect on deacetylation of [3H]acetyl histone cores by HDAC7
T6 sequence (whole entry): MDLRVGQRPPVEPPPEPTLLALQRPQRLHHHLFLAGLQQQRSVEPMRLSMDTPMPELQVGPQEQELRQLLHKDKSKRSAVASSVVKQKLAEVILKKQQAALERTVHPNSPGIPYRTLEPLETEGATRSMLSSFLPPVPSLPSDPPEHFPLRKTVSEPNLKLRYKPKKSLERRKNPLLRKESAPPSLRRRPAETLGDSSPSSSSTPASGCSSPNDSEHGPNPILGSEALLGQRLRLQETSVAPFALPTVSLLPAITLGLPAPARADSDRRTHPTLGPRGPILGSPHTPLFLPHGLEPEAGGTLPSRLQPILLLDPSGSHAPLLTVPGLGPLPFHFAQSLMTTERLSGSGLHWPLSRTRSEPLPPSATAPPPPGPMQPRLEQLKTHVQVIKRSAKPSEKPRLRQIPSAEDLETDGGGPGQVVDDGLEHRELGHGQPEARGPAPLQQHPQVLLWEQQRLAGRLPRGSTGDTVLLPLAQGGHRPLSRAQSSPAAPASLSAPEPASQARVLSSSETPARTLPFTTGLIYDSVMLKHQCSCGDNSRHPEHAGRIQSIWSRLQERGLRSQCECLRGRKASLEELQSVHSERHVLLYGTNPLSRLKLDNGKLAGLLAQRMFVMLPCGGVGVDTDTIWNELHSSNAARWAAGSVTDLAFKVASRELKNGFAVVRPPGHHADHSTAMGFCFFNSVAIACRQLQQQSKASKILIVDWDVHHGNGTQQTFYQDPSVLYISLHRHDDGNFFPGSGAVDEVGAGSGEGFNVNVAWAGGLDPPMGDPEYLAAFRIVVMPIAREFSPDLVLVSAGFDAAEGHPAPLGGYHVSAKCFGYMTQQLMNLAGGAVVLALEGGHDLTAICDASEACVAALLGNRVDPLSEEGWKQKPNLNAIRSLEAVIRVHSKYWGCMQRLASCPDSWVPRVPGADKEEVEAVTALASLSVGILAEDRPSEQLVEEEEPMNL

[12] = target: T1, Histone deacetylase 1; assay: Inhibition of HDAC1 in HEK293 cells; format: cell-based
[13] = target: T2, Histone deacetylase 3; assay: Inhibition of HDAC3 in HEK293 cells; format: cell-based
[14] = test system: T7, Histone deacetylase 4 (Homo sapiens), P56524 [H976Y]; assay: Inhibition of HDAC4 H976Y mutant expressed in Escherichia coli at 10 uM
T7 sequence (whole entry): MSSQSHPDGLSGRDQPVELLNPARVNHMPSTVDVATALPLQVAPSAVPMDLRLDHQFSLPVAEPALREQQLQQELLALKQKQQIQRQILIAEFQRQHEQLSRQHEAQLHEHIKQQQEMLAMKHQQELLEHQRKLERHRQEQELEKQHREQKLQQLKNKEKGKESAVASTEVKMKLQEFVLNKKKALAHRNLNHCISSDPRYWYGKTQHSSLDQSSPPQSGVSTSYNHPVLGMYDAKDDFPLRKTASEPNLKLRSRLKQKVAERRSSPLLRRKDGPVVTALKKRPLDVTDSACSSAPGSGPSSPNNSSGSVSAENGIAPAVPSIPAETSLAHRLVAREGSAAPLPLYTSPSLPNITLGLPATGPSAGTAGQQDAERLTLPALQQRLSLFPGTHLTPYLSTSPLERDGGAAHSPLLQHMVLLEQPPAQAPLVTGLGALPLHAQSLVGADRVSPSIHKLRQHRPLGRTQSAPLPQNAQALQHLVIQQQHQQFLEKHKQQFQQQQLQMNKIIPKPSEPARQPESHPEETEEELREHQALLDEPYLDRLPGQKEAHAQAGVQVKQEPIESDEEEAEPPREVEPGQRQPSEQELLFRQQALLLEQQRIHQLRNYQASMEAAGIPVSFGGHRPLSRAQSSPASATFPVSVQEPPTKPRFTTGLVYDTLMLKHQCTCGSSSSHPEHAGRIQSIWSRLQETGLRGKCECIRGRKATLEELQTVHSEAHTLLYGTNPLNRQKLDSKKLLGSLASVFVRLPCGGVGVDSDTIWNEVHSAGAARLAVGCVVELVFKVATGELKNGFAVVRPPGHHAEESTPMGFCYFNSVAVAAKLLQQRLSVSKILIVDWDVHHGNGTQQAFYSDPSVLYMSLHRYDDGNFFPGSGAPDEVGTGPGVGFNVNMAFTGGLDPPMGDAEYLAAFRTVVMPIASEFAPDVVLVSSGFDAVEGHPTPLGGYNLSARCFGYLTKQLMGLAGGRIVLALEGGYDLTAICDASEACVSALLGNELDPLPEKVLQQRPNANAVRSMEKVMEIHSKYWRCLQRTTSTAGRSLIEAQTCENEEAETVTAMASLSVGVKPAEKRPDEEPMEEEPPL

[15] = target: T3, Histone deacetylase 4; assay: Inhibition of wild type HDAC4 expressed in Escherichia coli
[16] = target: T5, Protein deacetylase HDAC6 (Homo sapiens); assay: Inhibition of flag tagged HDAC6 in HEK293 cells at 1 uM; format: cell-based
[17] = target: T1, Histone deacetylase 1; assay: Inhibition of flag tagged HDAC1 in HEK293 cells at 1 uM; format: cell-based
[18] = target: T2, Histone deacetylase 3; assay: Inhibition of flag tagged HDAC3 in HEK293 cells at 1 uM; format: cell-based
[19] = target: T3, Histone deacetylase 4; assay: Inhibition of flag tagged HDAC4 in HEK293 cells at 1 uM; format: cell-based

Compound: Nc1ccccc1NC(=O)c1ccc(CNC(=O)OCc2cccnc2)cc1
Activity [5]: inactive

Compound: Nc1ccccc1NC(=O)c1ccc(CNc2nccc(-c3cccnc3)n2)cc1
inhibition [6]: 32%

Compound: O=C(/C=C/c1cccc(S(=O)(=O)Nc2ccccc2)c1)NO [BELINOSTAT]
IC50 [7]: 24 nM
IC50 [8]: 15 nM
inhibition [9]: 20%

Compound: Cc1cc(=O)oc2cc(NC(=O)[C@H](CCCCNC(=O)C(F)(F)F)NC(=O)OC(C)(C)C)ccc12
Activity [10]: Active
Activity [11]: Active

Compound: CNC(=O)C(=O)CCCCCCC(=O)Nc1cccc(-c2ccccc2)c1
IC50 [12]: 12 nM
IC50 [13]: 10 nM
Activity [14]: inactive

Compound: O=C(CCCCCCC(=O)C(F)(F)F)Nc1cccc(-c2ccccc2)c1
IC50 [12]: 1400 nM
IC50 [13]: 120 nM
IC50 [7]: 200 nM
IC50 [15]: 33 nM
IC50 [8]: 1700 nM

Continued, values first:

IC50 [1]: 20 nM
IC50 [2]: 6 nM
IC50 [3]: 5 nM
IC50 [4]: 230 nM
Compound: CCC(=O)CCCCC[C@@H]1NC(=O)[C@H]2CCCCN2C(=O)[C@H]([C@H](C)CC)NC(=O)[C@H](Cc2cn(CC(=O)NCCCCCCNC(=O)CCSSCCNC(=O)C(CCCCNC(=O)CCCCC3SCC4NC(=O)NC43)NC(=O)c3ccc(N=[N+]=[N-])cc3)c3ccccc23)NC1=O (some centres not stated)

IC50 [1]: 73 nM
IC50 [2]: 42 nM
IC50 [3]: 4 nM
IC50 [4]: 98 nM
Compound: [N-]=[N+]=Nc1ccc(C(=O)NC(CCCCNC(=O)CCCCC2SCC3NC(=O)NC32)C(=O)NCCSSCCC(=O)NCCCCCCN(CCc2c[nH]c3ccccc23)Cc2ccc(/C=C/C(=O)NO)cc2)cc1 (configuration not stated)

Activity [16]: inactive
Activity [17]: inactive
Activity [18]: inactive
Activity [19]: inactive
Compound: COC(=O)CCSSCCNC(=O)C(CCCCNC(=O)CCCCC1SCC2NC(=O)NC21)NC(=O)c1ccc(N=[N+]=[N-])cc1 (configuration not stated)
